Source: patent publication US20070122414A1, “Surface marker-directed cancer therapeutics” (Aurelium BioPharma Inc., priority 2005, published 2007)

Test system: SKOV3 ovarian tumor cells
Assay: SKOV3 tumor xenograft in nude mice, relative tumor volume (Example 1)
Type: in vivo
Details: SKOV3 tumors in nude mice; intravenous
Experimental: Starting on the first day of treatment, tumor growth was measured by […], and the volume of the xenograft was monitored every 4 days. […] Mice were then treated with vimentin-directed therapeutics. […] Taxol was obtained commercially from Sigma Corp. (St. Louis, Mo.).
All treatments were introduced by intravenous administration. Mice were then sacrificed and tumors excised for relative volume determinations.

CC(=O)O[C@H]1C(=O)[C@@]2(C)[C@H]([C@H](OC(=O)c3ccccc3)[C@]3(O)C[C@H](OC(=O)[C@H](O)[C@@H](NC(=O)c4ccccc4)c4ccccc4)C(C)=C1C3(C)C)[C@]1(OC(C)=O)CO[C@@H]1C[C@@H]2O [taxol]
tumor size/volume relative to other treatment groups: smaller than tumors in mice treated with vehicle or isotypic control, but not as small as the tumors isolated from mice treated with anti-vimentin antibodies and taxol together
